Reference: patent publication USRE31731E, “Herbicidal 4-trifluoromethyl-4-nitrodiphenyl ethers” (priority 1978, dated 1984)

The molecules below were run on Monocots (assay: Herbicidal activity, preemergence, monocot weeds (Table II)). Conditions: pre-emergence, 336 h, 2 lb./A., about 2 weeks, read-out: % control (percent of plants killed).
Assay type: in vivo
Experimental: (§1) Using the procedure described below, diphenyl ethers were evaluated for control of the following weeds: […]
(§2) barnyardgrass (Echinochloa crusgalli) crabgrass (Digitaria spp.) nutsedge (Cyperus esculentus)
(§3) At 2 and 4 pounds per acre:
(§4) **Bermudagrass (Cynodon dactylon)
(§5) *downy brome (Bromus tectorum) foxtail (Setaria faberii)
(§6) Johnsongrass (Sorghum halepense) […]
(§7) quackgrass (Agropyron repens)
(§8) *ryegrass (Lolium perenne)
(§9) *yellow millet (Panicum miliaceum)
(§10) The following test procedure is employed. Seeds of selected crops and weeds are planted in soil in flats. For preemergence tests, the flats are treated with the test compound immediately after the planting. For postemergence tests, the seeds are allowed to germinate, and after 2 weeks the flats are treated with the test compound. The compound to be evaluated is dissolved in acetone, diluted with water, and sprayed over the flats using a carrier volume equivalent to 50 gallons per acre at the rate of application (pounds per acre, lb/A.) specified in the tables. About 2 weeks after the application of the test compound, the state of growth of the plants is observed and the phytotoxic effect of the compound is evaluated. Table II gives the average percent control achieved by the test compounds in terms of the percent of the plants which are killed by the compounds.

Row | SMILES | pest or weed control at 2241.7 g/ha
1 | CC(Oc1cc(Oc2ccc(C(F)(F)F)cc2Cl)ccc1[N+](=O)[O-])C(=O)N(C)C (stereo not drawn) [Example 53] | 98%
2 | Cc1cc(Oc2ccc(C(F)(F)F)cc2Cl)ccc1[N+](=O)[O-] [Example 36, 2-chloro-α,α,α-trifluoro-p-tolyl-4-nitro-m-tolyl ether] | 100%
3 | CCOc1cc(Oc2c(Cl)cc(C(F)(F)F)cc2Cl)ccc1[N+](=O)[O-] [Example 56, 2,6-Dichloro-α,α,α-trifluoro-p-tolyl-3-ethoxy-4-nitrophenyl ether] | 100%

Same assay, conditions: pre-emergence, 336 h, 4 lb./A., about 2 weeks, read-out: % control (percent of plants killed)

Row | SMILES | pest or weed control at 4483.4 g/ha
4 | CC(Oc1cc(Oc2ccc(C(F)(F)F)cc2Cl)ccc1[N+](=O)[O-])C(=O)N(C)C (stereo not drawn) [Example 53] | 98%
5 | Cc1cc(Oc2ccc(C(F)(F)F)cc2Cl)ccc1[N+](=O)[O-] [Example 36, 2-chloro-α,α,α-trifluoro-p-tolyl-4-nitro-m-tolyl ether] | 93%
6 | CCOc1cc(Oc2c(Cl)cc(C(F)(F)F)cc2Cl)ccc1[N+](=O)[O-] [Example 56, 2,6-Dichloro-α,α,α-trifluoro-p-tolyl-3-ethoxy-4-nitrophenyl ether] | 91%

These molecules were tested on Dicots (assay: Herbicidal activity, preemergence, dicot weeds (Table II)). Conditions: pre-emergence, 336 h, 2 lb./A., about 2 weeks, read-out: % control (percent of plants killed).
Assay type: in vivo
Experimental: as §1
(§11) bindweed (Convolvulus arvensis) curly dock (Remex crispus) velvetleaf (Abutilon theophrasti) wild mustard (Brassica haber)
(§12) At 2 and 4 pounds per acre: […]
(§13) cocklebur (Xanthium pensylvanicum)
(§14) **coffeeweed (Sesbania macrocarpa)
(§15) *curly dock (Rumex crispus)
(§16) *lambsquarters (Chenopodium album) morningglory (Ipomoea purpurea)
(§17) *pigweed (Amaranthus retroflexus)
(§18) **ragweed (Ambrosia artemisiifolia)
(§19) *smartweed (Polygonum pensylvanicum)
(§20) **tomato (Lycopersicon esculentum)
(§21) *wild carrot (Daucus carota)
(§22) *wild mustard (Brassica haber)
as §10

Row | SMILES | pest or weed control at 2241.7 g/ha
7 | CC(Oc1cc(Oc2ccc(C(F)(F)F)cc2Cl)ccc1[N+](=O)[O-])C(=O)N(C)C (stereo not drawn) [Example 53] | 100%
8 | Cc1cc(Oc2ccc(C(F)(F)F)cc2Cl)ccc1[N+](=O)[O-] [Example 36, 2-chloro-α,α,α-trifluoro-p-tolyl-4-nitro-m-tolyl ether] | 100%
9 | CCOc1cc(Oc2c(Cl)cc(C(F)(F)F)cc2Cl)ccc1[N+](=O)[O-] [Example 56, 2,6-Dichloro-α,α,α-trifluoro-p-tolyl-3-ethoxy-4-nitrophenyl ether] | 100%

Same assay, conditions: pre-emergence, 336 h, 4 lb./A., about 2 weeks, read-out: % control (percent of plants killed)

Row | SMILES | pest or weed control at 4483.4 g/ha
10 | CC(Oc1cc(Oc2ccc(C(F)(F)F)cc2Cl)ccc1[N+](=O)[O-])C(=O)N(C)C (stereo not drawn) [Example 53] | 83%
11 | Cc1cc(Oc2ccc(C(F)(F)F)cc2Cl)ccc1[N+](=O)[O-] [Example 36, 2-chloro-α,α,α-trifluoro-p-tolyl-4-nitro-m-tolyl ether] | 100%
12 | CCOc1cc(Oc2c(Cl)cc(C(F)(F)F)cc2Cl)ccc1[N+](=O)[O-] [Example 56, 2,6-Dichloro-α,α,α-trifluoro-p-tolyl-3-ethoxy-4-nitrophenyl ether] | 83%

What follows are molecules tested on Monocots (assay: Herbicidal activity, postemergence, monocot weeds (Table II)). Conditions: post-emergence, 336 h, 2 lb./A., about 2 weeks, read-out: % control (percent of plants killed).
Assay type: in vivo
Experimental: as §1, §2, §3, §4, §5, §6, §7, §8, §9, §10

Row | SMILES | pest or weed control at 2241.7 g/ha
13 | CC(Oc1cc(Oc2ccc(C(F)(F)F)cc2Cl)ccc1[N+](=O)[O-])C(=O)N(C)C (stereo not drawn) [Example 53] | 81%
14 | Cc1cc(Oc2ccc(C(F)(F)F)cc2Cl)ccc1[N+](=O)[O-] [Example 36, 2-chloro-α,α,α-trifluoro-p-tolyl-4-nitro-m-tolyl ether] | 94%
15 | CCOc1cc(Oc2c(Cl)cc(C(F)(F)F)cc2Cl)ccc1[N+](=O)[O-] [Example 56, 2,6-Dichloro-α,α,α-trifluoro-p-tolyl-3-ethoxy-4-nitrophenyl ether] | 100%

Same assay, conditions: post-emergence, 336 h, 4 lb./A., about 2 weeks, read-out: % control (percent of plants killed)

Row | SMILES | pest or weed control at 4483.4 g/ha
16 | CC(Oc1cc(Oc2ccc(C(F)(F)F)cc2Cl)ccc1[N+](=O)[O-])C(=O)N(C)C (stereo not drawn) [Example 53] | 79%
17 | Cc1cc(Oc2ccc(C(F)(F)F)cc2Cl)ccc1[N+](=O)[O-] [Example 36, 2-chloro-α,α,α-trifluoro-p-tolyl-4-nitro-m-tolyl ether] | 87%
18 | CCOc1cc(Oc2c(Cl)cc(C(F)(F)F)cc2Cl)ccc1[N+](=O)[O-] [Example 56, 2,6-Dichloro-α,α,α-trifluoro-p-tolyl-3-ethoxy-4-nitrophenyl ether] | 99%

Each molecule was assayed on Dicots (assay: Herbicidal activity, postemergence, dicot weeds (Table II)). Conditions: post-emergence, 336 h, 2 lb./A., about 2 weeks, read-out: % control (percent of plants killed).
Assay type: in vivo
Experimental: as §1, §11, §12, §13, §14, §15, §16, §17, §18, §19, §20, §21, §22, §10

Row | SMILES | pest or weed control at 2241.7 g/ha
19 | CC(Oc1cc(Oc2ccc(C(F)(F)F)cc2Cl)ccc1[N+](=O)[O-])C(=O)N(C)C (stereo not drawn) [Example 53] | 100%
20 | Cc1cc(Oc2ccc(C(F)(F)F)cc2Cl)ccc1[N+](=O)[O-] [Example 36, 2-chloro-α,α,α-trifluoro-p-tolyl-4-nitro-m-tolyl ether] | 98%
21 | CCOc1cc(Oc2c(Cl)cc(C(F)(F)F)cc2Cl)ccc1[N+](=O)[O-] [Example 56, 2,6-Dichloro-α,α,α-trifluoro-p-tolyl-3-ethoxy-4-nitrophenyl ether] | 99%

Same assay, conditions: post-emergence, 336 h, 4 lb./A., about 2 weeks, read-out: % control (percent of plants killed)

Row | SMILES | pest or weed control at 4483.4 g/ha
22 | CC(Oc1cc(Oc2ccc(C(F)(F)F)cc2Cl)ccc1[N+](=O)[O-])C(=O)N(C)C (stereo not drawn) [Example 53] | 100%
23 | Cc1cc(Oc2ccc(C(F)(F)F)cc2Cl)ccc1[N+](=O)[O-] [Example 36, 2-chloro-α,α,α-trifluoro-p-tolyl-4-nitro-m-tolyl ether] | 100%
24 | CCOc1cc(Oc2c(Cl)cc(C(F)(F)F)cc2Cl)ccc1[N+](=O)[O-] [Example 56, 2,6-Dichloro-α,α,α-trifluoro-p-tolyl-3-ethoxy-4-nitrophenyl ether] | 100%

These molecules were tested on corn (assay: Crop tolerance, corn). Conditions: postemergence; 50% or less kill of crop at rates giving more than 50% kill of weeds.
Assay type: in vivo
Experimental: as §10
(§23) Following the general test procedure of Example 73, diphenyl ethers are evaluated for significant tolerance (as shown by 50% or less kill of the test crop at levels of application which give more than 50% kill of many or all of the weeds of Example 73) towards some or all of the following common agronomic crops (not all compounds tested against all crops): alfalfa, snapbeans, corn, cotton, cucumbers, peanuts, rape, rice, safflower, soybeans, tomatoes, and wheat.

Row | SMILES | Tolerance to corn
25 | CC(Oc1cc(Oc2ccc(C(F)(F)F)cc2Cl)ccc1[N+](=O)[O-])C(=O)N(C)C (stereo not drawn) [Example 53] | Tolerance
26 | Cc1cc(Oc2ccc(C(F)(F)F)cc2Cl)ccc1[N+](=O)[O-] [Example 36, 2-chloro-α,α,α-trifluoro-p-tolyl-4-nitro-m-tolyl ether] | Tolerance
27 | CCOc1cc(Oc2c(Cl)cc(C(F)(F)F)cc2Cl)ccc1[N+](=O)[O-] [Example 56, 2,6-Dichloro-α,α,α-trifluoro-p-tolyl-3-ethoxy-4-nitrophenyl ether] | Tolerance

What follows are molecules tested on peanuts (assay: Crop tolerance, peanuts). Conditions: postemergence; 50% or less kill of crop at rates giving more than 50% kill of weeds.
Assay type: in vivo
Experimental: as §10, §23

Row | SMILES | Tolerance to peanuts
28 | CC(Oc1cc(Oc2ccc(C(F)(F)F)cc2Cl)ccc1[N+](=O)[O-])C(=O)N(C)C (stereo not drawn) [Example 53] | Tolerance
29 | Cc1cc(Oc2ccc(C(F)(F)F)cc2Cl)ccc1[N+](=O)[O-] [Example 36, 2-chloro-α,α,α-trifluoro-p-tolyl-4-nitro-m-tolyl ether] | Tolerance

Same assay, conditions: preemergence; 50% or less kill of crop at rates giving more than 50% kill of weeds

Row | SMILES | Tolerance to peanuts
30 | CC(Oc1cc(Oc2ccc(C(F)(F)F)cc2Cl)ccc1[N+](=O)[O-])C(=O)N(C)C (stereo not drawn) [Example 53] | Tolerance
31 | Cc1cc(Oc2ccc(C(F)(F)F)cc2Cl)ccc1[N+](=O)[O-] [Example 36, 2-chloro-α,α,α-trifluoro-p-tolyl-4-nitro-m-tolyl ether] | Tolerance
32 | CCOc1cc(Oc2c(Cl)cc(C(F)(F)F)cc2Cl)ccc1[N+](=O)[O-] [Example 56, 2,6-Dichloro-α,α,α-trifluoro-p-tolyl-3-ethoxy-4-nitrophenyl ether] | Tolerance

These molecules were tested on rice (assay: Crop tolerance, rice). Conditions: postemergence or on transplanted rice; 50% or less kill of crop at rates giving more than 50% kill of weeds.
Assay type: in vivo
Experimental: as §10, §23

Row | SMILES | Tolerance to rice
33 | CC(Oc1cc(Oc2ccc(C(F)(F)F)cc2Cl)ccc1[N+](=O)[O-])C(=O)N(C)C (stereo not drawn) [Example 53] | Tolerance

What follows are molecules tested on soybeans (assay: Crop tolerance, soybeans). Conditions: preemergence; 50% or less kill of crop at rates giving more than 50% kill of weeds.
Assay type: in vivo
Experimental: as §10, §23

Row | SMILES | Tolerance to soybeans
34 | CC(Oc1cc(Oc2ccc(C(F)(F)F)cc2Cl)ccc1[N+](=O)[O-])C(=O)N(C)C (stereo not drawn) [Example 53] | Tolerance

These molecules were tested on wheat (assay: Crop tolerance, wheat). Conditions: postemergence; 50% or less kill of crop at rates giving more than 50% kill of weeds.
Assay type: in vivo
Experimental: as §10, §23

Row | SMILES | Tolerance to wheat
35 | Cc1cc(Oc2ccc(C(F)(F)F)cc2Cl)ccc1[N+](=O)[O-] [Example 36, 2-chloro-α,α,α-trifluoro-p-tolyl-4-nitro-m-tolyl ether] | Tolerance

Same assay, conditions: preemergence; 50% or less kill of crop at rates giving more than 50% kill of weeds

Row | SMILES | Tolerance to wheat
36 | CCOc1cc(Oc2c(Cl)cc(C(F)(F)F)cc2Cl)ccc1[N+](=O)[O-] [Example 56, 2,6-Dichloro-α,α,α-trifluoro-p-tolyl-3-ethoxy-4-nitrophenyl ether] | Tolerance
